Target: T1, BoMan26B (Bacteroides ovatus, UniProt A0ABU3IS29)
T1 construct: gene RO706_12620; signal peptide (first 19 residues) removed; recombinant in E. coli BL21(DE3), purified on a HisTrap column; residues 37-361 modelled; catalytic Glu-201 and Glu-291
T1 sequence (A0ABU3IS29 20-360): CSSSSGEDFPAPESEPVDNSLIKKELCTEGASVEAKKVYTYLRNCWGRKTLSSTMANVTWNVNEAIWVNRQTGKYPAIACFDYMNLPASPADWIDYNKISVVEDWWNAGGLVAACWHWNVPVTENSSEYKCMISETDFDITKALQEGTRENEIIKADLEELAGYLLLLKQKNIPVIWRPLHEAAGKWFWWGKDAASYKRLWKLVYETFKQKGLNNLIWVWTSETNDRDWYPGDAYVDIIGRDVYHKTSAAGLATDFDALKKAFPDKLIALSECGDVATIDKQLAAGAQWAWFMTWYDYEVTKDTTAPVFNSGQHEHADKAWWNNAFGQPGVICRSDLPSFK
Test: hydrolysis in H2^[…], MALDI-TOF MS and HPAEC-PAD
Assay type: biochemical
Details: 2 mM M6, 1 mM CaCl2, potassium phosphate pH 6.5, 8 °C

OC[C@H]1O[C@@H](O[C@H]2[C@H](O)[C@H](O)[C@H](O[C@H]3[C@H](O)[C@H](O)[C@H](O[C@H]4[C@H](O)[C@H](O)[C@H](O[C@H]5[C@H](O)[C@H](O)[C@H](O[C@H]6[C@H](O)[C@H](O)C(O)O[C@@H]6CO)O[C@@H]5CO)O[C@@H]4CO)O[C@@H]3CO)O[C@@H]2CO)[C@@H](O)[C@@H](O)[C@@H]1O (stereo partly shown) [M6, mannohexaose]
hydrolysis in H2^18O, MALDI-TOF MS and HPAEC-PAD: The main hydrolytic events of BoMan26B on M6 result in production of mannose

Source: article PMC6556568, “A surface-exposed GH26 β-mannanase from Bacteroides ovatus: Structure, role, and phylogenetic analysis of BoMan26B” (The Journal of Biological Chemistry, 2019)
